Data on 2 molecules can be found in a compilation of properties of binary mixtures (doi:10.1016/j.fluid.2019.06.006).

This data set can be described thus: xn = mol fraction of the nth substance listed. The settings on record: 100 kPa.

As usually defined, the viscosity is the resistance of a fluid to flow. Low values mean easy flow, high ones sluggish flow. As to `CC(=O)[O-].CC[n+]1ccn(C)c1` + OC[C@H](O)[C@@H](O)[C@H](O)[C@H](O)CO, the viscosity was determined as 89.4 mPa·s (303.15 K, x2 = 0); 34.6 mPa·s (323.15 K, x2 = 0); 23.8 mPa·s (333.15 K, x2 = 0).

On to `OC[C@@H](O)[C@@H](O)[C@H](O)[C@@H](O)CO` + CC(=O)[O-].CC[n+]1ccn(C)c1, for which the viscosity is, setting by setting: (303.15 K, x1 = 0.0941) 307 mPa·s; (303.15 K, x1 = 0.483) 1491.9 mPa·s; (313.15 K, x1 = 0.0941) 155 mPa·s; (313.15 K, x1 = 0.1894) 143.2 mPa·s; (313.15 K, x1 = 0.483) 572 mPa·s; (313.15 K, x1 = 0.5836) 816 mPa·s. Also, the viscosity runs as follows: (323.15 K, x1 = 0.0941) 88 mPa·s; (323.15 K, x1 = 0.1894) 80.7 mPa·s; (323.15 K, x1 = 0.2859) 292 mPa·s; (323.15 K, x1 = 0.483) 257 mPa·s; (323.15 K, x1 = 0.5836) 348 mPa·s; (333.15 K, x1 = 0.0941) 54.4 mPa·s. Further, the viscosity is given as 49.5 mPa·s (333.15 K, x1 = 0.1894); 153 mPa·s (333.15 K, x1 = 0.2859); 130.5 mPa·s (333.15 K, x1 = 0.483); 170.6 mPa·s (333.15 K, x1 = 0.5836).
